Experimental data from US20070004623A1, “Use of hydroxylated amino acids for treating diabetes” (Innodia Inc., priority 2003, published 2007).

Key:
Format in all cases: cell-based
[1] = test system: differentiated 3T3-L1 adipocyte cells; test: uptake of 3H-deoxy-glucose by differentiated 3T3-L1 adipocyte cells; conditions: last 30 minutes of 5 hour starvation, control cells 2 pmol/mg/minute
Method: Briefly, 3T3-L1 adipocyte cells (ATCC; Cl-173) were cultured in 12 well tissue culture plates for 3 days in order to reach confluence ([…] al., “Analysis of insulin-stimulated glucose uptake in differentiated 3T3-L1 adipocytes,” Diabetes Mellitus: Methods and Protocols, ([…]., 2003, pages 97-103). The culture medium was removed and replaced with differentiation-medium (Green et al., Cell 3:127-133, 1974; Madsen et al., Biochem. J. 375:539-549, 2003), and then the cells were incubated for an additional 9 days. The state of differentiation was confirmed by visual examination. Cell starvation was conducted for 5 hours by replacing the differentiation medium with medium lacking fetal calf serurn. During the starvation period, the cells were exposed ID 1101 (0.5 or 1.0 mM), for 0.5, 1, 2, 4, or 5 hours. The cells were exposed to insulin (0.0167 U/ml; Sigma; Cat. No. 15534) for the last 0.5 hour of the starvation period, either alone or in combination ID 1101. The cells were washed, and then fresh medium containing 16 μM ^3H-Deoxy-D-glucose (0.5 μCi/ml) and 10 μM 2-Deoxy-D-glucose was added and the cells were incubated for 10 minutes. Glucose uptake was stopped by washing the cells with ice cold PBS. The cells were lysed and specific activity in the lysate was determined relative to background uptake of ^3H-deoxy-glucose. […]

INS-1 cells [2] = test: glucose-dependent insulin secretion in INS-1 cells, ID 1101 with Glibenclamide; conditions: 4.5 mM glucose, 1 hour
Method: The optical isomer 2S,3R,4S of 4-hydroxyisoleucine (ID 1101) was tested in a blinded manner, alone and in combination with Glibenclamide, to determine the insulinotropic effect on INS-1 cells. Briefly, the cells were plated at a density of 2×10^5 in 12 well plates and incubated for 2 days in RPMI with 10% fetal calf serum and 11 mM glucose. The medium was removed on the third day post-plating and replaced with RPMI containing 3 mM glucose with 10% fetal calf serum. The cells were incubated for an additional 24 hours. On the fourth day post-plating, the medium was removed and replaced with Krebs-Ringers bicarbonate buffer containing 2 mM glucose. The cells were incubated for 30 minutes. The buffer was removed and replaced with Krebs-Ringers bicarbonate buffer with 4.5 mM glucose, containing ID 1101 at 0.1 mM, Glibenclamide alone at 10-10 mM or 10^−11 mM, or a combination of the 2 compounds. The cells were incubated for 1 hour. Basal insulin secretion was determined by incubating the cells in the presence of buffer with 2 mM glucose. The presence of glucose at 4.5 mM stimulated insulin secretion and served as the positive control.

INS-1 cells [3] = test: glucose-dependent insulin secretion in INS-1 cells, ID 1101 with Exendin-4; conditions: 4.5 mM glucose, 1 hour
Method: The optical isomer 2S,3R,4S of 4-hydroxyisoleucine (ID 1101) was tested alone and in combination with Exendin-4, to determine the insulinotropic effect on INS-1 cells. Briefly, the cells were plated at a density of 2×10^5 in 12 well plates and incubated for 2 days in RPMI with 10% fetal calf serum and 11 mM glucose. The medium was removed on the third day post-plating and replaced with RPMI containing 3 mM glucose with 10% fetal calf serum. The cells were incubated for an additional 24 hours. On the fourth day post-plating, the medium was removed and replaced with Krebs-Ringers bicarbonate buffer containing 2 mM glucose. The cells were incubated for 30 ninutes. The buffer was removed and replaced with Krebs-Ringers bicarbonate buffer with 4.5 mM glucose, containing ID 1101 at 0.01 or 0.05 mM, Exendin-4 alone at 10^−9 mM or 10^−10 mM, or a combination of the 2 compounds. The cells were incubated for 1 hour. Basal insulin secretion was determined by incubating the cells in the presence of buffer with 2 mM glucose. The effect of glucose at 4.5 mM served as the control.

In the case of `C[C@@H]([C@H](C)O)[C@H](N)C(=O)O` [ID 1101, 4-hydroxyisoleucine], the “stimulation of glucose uptake above the background level” value ([1]; ID 1101 0.5 or 1.0 mM as sole treatment) is reported as “approximately 5 pmol/mg/minute”, the insulin secretion (INS-1 cells [2]; ID 1101 0.1 mM) is reported as “stimulated insulin secretion above background levels” and the insulin secretion (INS-1 cells [3]; ID 1101 0.01 or 0.05 mM) is reported as “stimulated insulin secretion above background levels”.
For Exendin-4 [reference compound], the insulin secretion (INS-1 cells [3]; Exendin-4 10^−9 and 10^−10 mM) was “did not show a stimulatory effect”.
With `COc1ccc(Cl)cc1C(=O)NCCc1ccc(S(=O)(=O)NC(=O)NC2CCCCC2)cc1` [Glibenclamide] the insulin secretion (INS-1 cells [2]; Glibenclamide 10^−10 mM) was “showed a stimulatory effect” and the insulin secretion (INS-1 cells [2]; Glibenclamide 10^−11 mM) was “not”.
insulin was tested, and the “stimulation of glucose uptake above the background level” value ([1]; insulin 0.0167 U/ml as sole treatment) was “approximately 5 pmol/mg/minute”.
